# Test results reported in PMC10354055, “An optimized Nurr1 agonist provides disease-modifying effects in Parkinson’s disease models” (Nature Communications, 2023).
# Several values for one entry are separate records, joined by “and”; a condition that tells them apart may be missing. Equal entries are not always repeated.
# Assays:
# [1] = test system: MPTP-induced male mice; test: Rotarod, sub-chronic MPTP-induced PD model mice; format: in vivo, mouse
# Method: (§1) MPTP (Sigma-Aldrich) was intraperitoneally (i.p.) injected (30 mg/kg) for 5 days (Day 1-5). […] To test dyskinetic involuntary behavior, an L-DOPA injected group was included, which received 50 mg/kg of L-DOPA and 15 mg/kg of benserazide (Sigma-Aldrich) (i.p.) for 16 days (Day 1–16). All compounds were administered 6 h post-MPTP injection to avoid any effect of compounds on the MPTP metabolism in the brain. Motor and non-motor related behavior tests were performed on the following days as described in Fig. 4a in an assessor- and observer-blinded fashion. Pre-training and baseline setup for motor-related behaviors were performed 3 days prior to the injections. Mice were sacrificed and subjected to immunohistochemistry. Mice were housed at the Animal Care Facilities of McLean Hospital under a 12-h light/12-h dark cycle, ambient temperature and humidity. Animals were handled in accordance with McLean Hospital’s Institutional Animal Care and Use Committee (Protocol #: 2015N000002) and followed National Institutes of Health guidelines.
# Mice were pre-trained on an automated 5-lane rotarod unit (10 rpm, 3 min) for 2 days and the baseline was measured (10 rpm, 90 sec) before the rotarod test (3 days before the MPTP injection or the first rotarod test at week 2). Rotarod measurements were performed using an accelerating protocol, accelerated smoothly from 2 to 30 rpm for 5 min. Time on the rotating rod was measured automatically by placing a trip switch under the floor beneath the rotating drum.
# [2] = test system: MPTP-induced male mice; test: Pole test, MPTP-induced PD model mice; format: in vivo, mouse
# Method: as §1
# Mice were trained to descend a vertical metal rod wrapped with rough tape (80 cm high, 12 mm diameter) once per day for 2 days, and then the baseline was measured before the pole test (3 days before the MPTP injection or the first pole test at week 2). Mice were placed head-upward on the pole and total descent time was recorded.
# [3] = test system: MPTP-induced male mice; test: Cylinder test, MPTP-induced PD model mice; format: in vivo, mouse
# Method: as §1
# Mice were placed in a transparent plastic cylinder (15.5 cm high, 12.7 cm diameter) with a mirror behind it. Spontaneous activity was recorded and measured as counting the number of rearing events for 3 min session. A rear was considered only when the mouse touched the wall of the cylinder with its forelimb paws while standing on its hindlimbs (vertical movement) to count meaningful physiological movements.
# [4] = test system: MPTP-induced male mice; test: Olfactory discrimination test, MPTP-induced PD model mice; format: in vivo, mouse; conditions: Figure 4e, MPTP-induced mice, individual animal values
# Method: as §1
# The olfactory discrimination test was designed based on Prediger et al.. Briefly, mice were placed in a chamber (40 (w) × 20 (d) × 20 (h) cm) segmented with two identical compartments containing fresh sawdust (non-familiar odor) on one side and unchanged sawdust (familiar odor; maintained for 3 days before the test) on the other side. Mice could choose between one or another area by freely passing through an open door, for 5 min. Mice movements were monitored with EthoVision XT version 7.0 (Noldus) and time (s) and distance (cm) traveled in each compartment were recorded and analyzed.
# [5] = test system: MPTP-induced male mice; test: AIMs scoring (dyskinesia), MPTP-induced PD model mice; format: in vivo, mouse; conditions: for AIMs score (20-140 min): Figure 4f, MPTP-induced mice, individual animal values
# Method: Male C57BL/6 J mice (8–10 weeks, 25–30 g; Jackson Laboratories) were randomly assigned to 5 groups including vehicle (VEH), MPTP, MPTP + L-DOPA, MPTP + CQ and MPTP + 4A7C-301 (n ≥ 7 for each group). MPTP (Sigma-Aldrich) was intraperitoneally (i.p.) injected (30 mg/kg) for 5 days (Day 1-5). Different dosages of CQ (20, 40, and 80 mg/kg) and 4A7C-301 (1, 5, 20 mg/kg) were first tested to determine the effective dose window, then 40 and 5 mg/kg doses were finally selected for CQ and 4A7C-301 respectively to show the most prominent effects. CQ or 4A7C-301 was dissolved in PBS and administrated (i.p.) for 16 days starting with MPTP injection (Day 1-16). To test dyskinetic involuntary behavior, an L-DOPA injected group was included, which received 50 mg/kg of L-DOPA and 15 mg/kg of benserazide (Sigma-Aldrich) (i.p.) for 16 days (Day 1–16). All compounds were administered 6 h post-MPTP injection to avoid any effect of compounds on the MPTP metabolism in the brain. Motor and non-motor related behavior tests were performed on the following days as described in Fig. 4a in an assessor- and observer-blinded fashion. Pre-training and baseline setup for motor-related behaviors were performed 3 days prior to the injections. Mice were sacrificed and subjected to immunohistochemistry. Mice were housed at the Animal Care Facilities of McLean Hospital under a 12-h light/12-h dark cycle, ambient temperature and humidity. Animals were handled in accordance with McLean Hospital’s Institutional Animal Care and Use Committee (Protocol #: 2015N000002) and followed National Institutes of Health guidelines.
# Abnormal involuntary movements (AIMs) were scored using the developed mouse dyskinesia rating scale as described in Sebastianutto et al.. Briefly, 4 mice were recorded simultaneously with a Swann HD Security System (B&H Photo-Video Inc.) for 2 min per session, every 20 min during the 140 min following drug injections (i.e., total 7 sessions), on every other or third day (Day 2, 4, 7, 9, 11, 13, and 16). Dyskinetic movements were scored for 3 subtypes of basic AIMs including axial, forelimb and orolingual AIMs, based on the severity scale from 0 to 4 which measures the duration of AIMs (0 = no dyskinesia; 1 = display dyskinesia for <50% of the observation time; 2 = display dyskinesia for >50% of the observation time; 3 = display dyskinesia for the entire observation period but ceased upon external stimuli; 4 = display continuous and unceasing dyskinesia). To get a better and more sensitive validation of mice dyskinesia, we included an amplitude AIMs score, which rates the degree of deviation of body part or muscle position from its resting position on a 0-4 scale as previously described. Finally, global AIMs score was calculated by multiplying basic AIMs and amplitude AIMs scores for each subtype on each session. Data points were plotted as the grand total of individual AIMs score on each testing day.
# [6] = test system: MPTP-induced male mice; test: IHC/stereology of TH+ fibers, TH+ DA neurons and NeuN+ neurons, MPTP-induced mice; format: in vivo, mouse; conditions: MPTP-induced mice, individual animal values
# Method: as §1
# (§2) Images were acquired using a KEYENCE microscope and quantified as the number or optical density of immunoreactive cells using ImageJ software.
# (§3) The numbers of TH^+ DA neurons, NeuN^+ neurons, pS129 αSyn^+ cells in the SN and Iba-1^+ microglia in the SN and striatum were stereologically counted in six coronal sections (30 µm thickness) taken every 6th section (180 µm intervals) for each brain. The boundaries of the SN and striatum were delimited at low magnification (4X) to estimate each total area. Immunoreactive cells were counted with images taken at high magnification (×40) by a single blinded investigator. The group mean of the total number of immunoreactive cells from each brain was transformed as percentage of the number in the control group (%). For AAV-αSyn-induced mice, the group mean of the total number of cells in the ipsilateral side was transformed as a percentage of that observed in the contralateral side.
# [7] = test system: MPTP-induced male mice; test: IHC of Iba-1+ microglia in STR and SNpc, MPTP-induced mice; format: in vivo, mouse; conditions: MPTP-induced mice, individual animal values
# Method: as §1, §2, §3
# [8] = target: T1, Nurr1-LBD point mutants (Mus musculus, UniProt Q06219); test: Luciferase assay with point-mutants of Nurr1-LBD, SK-N-BE(2)C cells;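 note: Firefly luciferase normalized to beta-galactosidase activity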; format: cell-based; conditions: Supplementary Fig. 2, WT
# T1 construct: expressed in transfected cells; host or cells: SK-N-BE(2)C
# T1 sequence (Q06219 whole entry, change not shown, the tested form may be a part): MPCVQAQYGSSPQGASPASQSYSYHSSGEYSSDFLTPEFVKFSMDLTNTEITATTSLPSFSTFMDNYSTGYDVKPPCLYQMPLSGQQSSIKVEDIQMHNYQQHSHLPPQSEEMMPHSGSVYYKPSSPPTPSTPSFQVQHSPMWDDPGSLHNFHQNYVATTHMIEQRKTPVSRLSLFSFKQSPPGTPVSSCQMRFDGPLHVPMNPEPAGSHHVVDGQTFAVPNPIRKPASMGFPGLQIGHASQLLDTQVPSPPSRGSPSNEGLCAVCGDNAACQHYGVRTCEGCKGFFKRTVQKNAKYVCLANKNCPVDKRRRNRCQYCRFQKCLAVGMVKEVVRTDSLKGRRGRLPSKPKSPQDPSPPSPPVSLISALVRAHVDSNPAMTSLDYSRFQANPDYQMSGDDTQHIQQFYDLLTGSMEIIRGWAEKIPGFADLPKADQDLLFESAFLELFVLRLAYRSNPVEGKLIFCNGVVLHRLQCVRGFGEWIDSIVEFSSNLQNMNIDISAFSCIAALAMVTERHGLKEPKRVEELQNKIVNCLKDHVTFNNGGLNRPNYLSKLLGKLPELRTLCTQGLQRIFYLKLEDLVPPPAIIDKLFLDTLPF
# Method: (§4) Nurr1 transactivity was normalized to β-galactosidase activity.
# (§5) Nurr1 mutants were generated using the QuikChange ǁ XL site-directed mutagenesis kit (Agilent Technologies) according to the manufacturer’s instruction. Mutagenesis reactions were carried out on the plasmid of mouse Nurr1 cloned into pcDNA3.1 backbone, and then verified by sequencing.
# [9] = target: T2, Nurr1-LBD point mutants (Mus musculus, UniProt Q06219, D594A); test: as above; format: cell-based; conditions: Supplementary Fig. 2, D594A
# T2 construct: expressed in transfected cells; host or cells: SK-N-BE(2)C
# T2 sequence (Q06219 whole entry D594A, the tested form may be a part): as the sequence (Q06219 whole entry, change not shown, the tested form may be a part) above, with D594A counted along it
# Method: as §4, §5
# [10] = target: T3, Nurr1-LBD point mutants (Mus musculus, UniProt Q06219, K590A); test: as above; format: cell-based; conditions: Supplementary Fig. 2, K590A
# T3 construct: expressed in transfected cells; host or cells: SK-N-BE(2)C
# T3 sequence (Q06219 whole entry K590A, the tested form may be a part): as the sequence (Q06219 whole entry, change not shown, the tested form may be a part) above, with K590A counted along it
# Method: as §4, §5
# [11] = target: T4, Nurr1-LBD point mutants (Mus musculus, UniProt Q06219, L593A); test: as above; format: cell-based; conditions: Supplementary Fig. 2, L593A
# T4 construct: expressed in transfected cells; host or cells: SK-N-BE(2)C
# T4 sequence (Q06219 whole entry L593A, the tested form may be a part): as the sequence (Q06219 whole entry, change not shown, the tested form may be a part) above, with L593A counted along it
# Method: as §4, §5
# [12] = target: T5, Nurr1-LBD point mutants (Mus musculus, UniProt Q06219, S441A); test: as above; format: cell-based; conditions: Supplementary Fig. 2, S441A
# T5 construct: expressed in transfected cells; host or cells: SK-N-BE(2)C
# T5 sequence (Q06219 whole entry S441A, the tested form may be a part): as the sequence (Q06219 whole entry, change not shown, the tested form may be a part) above, with S441A counted along it
# Method: as §4, §5
# [13] = target: T6, Nur77 (Homo sapiens, UniProt P22736); test: Luciferase reporter assay, Nur77 LBD, SK-N-BE(2)C cells; format: cell-based; conditions: Fig. 1f, CQ 100 µM, 4A7C-301 20 µM, cytosporone B 10 µM
# T6 construct: using LBD of NR4A subfamily members in SK-N-BE(2)C cells; expressed in transfected cells; host or cells: SK-N-BE(2)C
# T6 sequence (P22736 360-595 limits assumed, species assumed): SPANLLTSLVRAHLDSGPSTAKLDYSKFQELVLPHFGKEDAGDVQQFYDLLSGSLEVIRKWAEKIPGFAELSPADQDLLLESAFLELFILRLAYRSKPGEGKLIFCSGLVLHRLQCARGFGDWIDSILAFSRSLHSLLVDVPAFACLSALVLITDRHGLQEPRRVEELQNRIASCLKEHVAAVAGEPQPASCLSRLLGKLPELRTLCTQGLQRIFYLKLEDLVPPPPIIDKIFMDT
# [14] = CQ 40, 4A7C-301 5, L-DOPA 50 mg/kg/day, i.p., 16 days
structure (smiles),measurement,setting,value
N[C@@H](Cc1ccc(O)c(O)c1)C(=O)O [L-DOPA],"motor function, rotarod (in words)",[1]; [14],significantly rescued
same,Latency to fall,"[1]; Figure 4b, MPTP-induced mice, individual animal values",137.97 s and 138.13 s and 80.13 s and 101.23 s and 128.1 s and 204.93 s and 146.8 s and 175.2 s and 116.5 s and 196.07 s
same,"motor function, pole test (in words)",[2]; [14],significantly rescued
same,Time to traverse,"[2]; Figure 4c, MPTP-induced mice, individual animal values",8.78 s and 7.65 s and 6.89 s and 8.14 s and 4.4 s and 7.41 s and 5.91 s and 7.98 s and 7.2 s and 9.47 s
same,"motor function, cylinder test (in words)",[3]; [14],significantly rescued
same,Number of rearing,"[3]; Figure 4d, MPTP-induced mice, individual animal values",34 and 77 and 71 and 22 and 24 and 17 and 21 and 55 and 32 and 29
same,Velocity,[4],4.7 cm/s and 5.67 cm/s and 6.49 cm/s and 5.88 cm/s and 6.16 cm/s and 7.7 cm/s and 9.82 cm/s and 6.86 cm/s and 7.1 cm/s and 6.45 cm/s and 7.2 cm/s
same,"Duration to stay (sec), New bedding",[4]; New bedding,183.25 s and 108.99 s and 116.25 s and 132.99 s and 167.47 s and 141.68 s and 212.98 s and 167.63 s and 167.4 s and 102.43 s and 140.79 s
same,"Duration to stay (sec), Old bedding",[4]; Old bedding,133.6 s and 197.16 s and 159.56 s and 114.75 s and 189.57 s and 183.55 s and 166.31 s and 132.11 s and 158.67 s and 90.56 s and 134.77 s
same,abnormal involuntary movements (AIMs) (in words),"[5]; CQ 40, 4A7C-301 5, L-DOPA 50 mg/kg/day, i.p.",severe AIMs
same,AIMs score (20-140 min),[5]; day 2,7 and 5.5 and 11 (2×) and 6 and 14 and 20 and 4 and 12 and 5 and 16.3
same,AIMs score (20-140 min),[5]; day 4,9 and 13 and 14 and 12 (2×) and 16 (2×) and 17 (2×) and 27 (2×)
same,AIMs score (20-140 min),[5]; day 7,21.5 and 27.5 and 12 and 55 and 25.5 and 35 and 14 and 56 and 31.5 and 46 and 20
same,AIMs score (20-140 min),[5]; day 9,23 (2×) and 26 and 21 (3×) and 19 (2×) and 42 and 18 and 44
same,AIMs score (20-140 min),[5]; day 11,28 and 33 and 23 and 27 and 20 and 35 (2×) and 12 and 55.5 and 30.5 and 61
same,AIMs score (20-140 min),[5]; day 13,63.5 and 30.5 and 43 and 32.5 and 36 and 50 and 34 and 34.5 and 53.25 and 63 and 56
same,AIMs score (20-140 min),[5]; day 16,110.5 and 38.5 (2×) and 56 and 60.5 and 40.5 and 47.5 and 84 and 48.5 and 67.5 and 83.5
same,TH+ neurons in SNpc (% of control),[6]; Figure 4j,85.08 % of control and 29.95 % of control and 41.78 % of control and 36.5 % of control and 16.11 % of control and 47.32 % of control and 20.39 % of control
same,NeuN+ neurons in SNpc (% of control),[6]; Figure 4k,54.87 % of control and 63.58 % of control and 65.33 % of control and 79.48 % of control
same,TH fiber density in STR (% of control),[6]; Figure 4h,32.4 % of control and 36.19 % of control and 33.35 % of control and 30.68 % of control and 30.71 % of control and 45.79 % of control and 28.8 % of control
same,Iba-1+ cells in STR (% of control),[7]; Figure 4m,163.11 % of control and 168.08 % of control and 185.26 % of control and 234.36 % of control and 189.06 % of control and 208.32 % of control and 222.78 % of control
same,Iba-1+ cells in SNpc (% of control),[7]; Figure 4n,319.52 % of control and 324.44 % of control and 366.71 % of control and 419.8 % of control and 373.6 % of control and 282.16 % of control and 446.35 % of control
"CCN(CC)Cc1cc(Nc2ccnc3cc(Cl)ccc23)ccc1O [AQ, amodiaquine]",Luciferase activity (fold),[8],16.1226 fold and 16.0906 fold and 15.547 fold
same,Luciferase activity (fold),[9],15.1749 fold and 15.4902 fold and 14.0814 fold
same,Luciferase activity (fold),[10],14.5075 fold and 14.599 fold and 17.3856 fold
same,Luciferase activity (fold),[11],14.8074 fold and 14.193 fold and 15.2957 fold
same,Luciferase activity (fold),[12],14.9384 fold and 15.2215 fold and 14.6264 fold
"CCCCCCCC(=O)c1c(O)cc(O)cc1CC(=O)OCC [Cytosporone B, cytosporone B]","Luciferase activity (fold), Nur77",[13],13.029 fold and 14.4047 fold and 12.8586 fold
same,"Luciferase activity (fold), Nur77",[13]; listed as cytosporone B,robustly increased
